Where two headings read alike, the source gives them in different places.

Three compounds from article PMC4457528, “Identification of Novel Small Molecule Inhibitors of Oncogenic RET Kinase” (PLoS ONE, 2015) can be followed below.

Holding throughout (experiment): KinomeScan kinase panel, single concentration 10 µM
Holding throughout (format): binding

The target of assay [1] is T1, KinomeScan kinase panel (Homo sapiens, UniProt P16591).
T1 construct: purchased DiscoveRx (KinomeScan)
The following applies: FER, 10 µM; read-out: score (%).

Assay [2] addresses T2, KinomeScan kinase panel (Homo sapiens, UniProt Q86YV6).
T2 construct: purchased DiscoveRx (KinomeScan)
T2 sequence (Q86YV6 1-388): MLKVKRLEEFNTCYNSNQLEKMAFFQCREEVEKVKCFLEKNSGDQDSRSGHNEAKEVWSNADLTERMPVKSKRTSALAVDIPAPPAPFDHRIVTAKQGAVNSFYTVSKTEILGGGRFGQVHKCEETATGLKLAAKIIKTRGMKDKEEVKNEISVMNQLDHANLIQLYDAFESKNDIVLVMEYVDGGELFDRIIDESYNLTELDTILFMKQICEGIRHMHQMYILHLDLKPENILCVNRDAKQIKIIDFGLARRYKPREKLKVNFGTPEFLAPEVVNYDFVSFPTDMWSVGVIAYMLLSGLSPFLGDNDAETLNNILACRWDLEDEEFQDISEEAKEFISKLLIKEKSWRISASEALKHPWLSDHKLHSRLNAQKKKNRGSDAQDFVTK
The following applies: read-out: score (%).

Assay [3] deals with T3, KinomeScan kinase panel (Homo sapiens, UniProt P07949).
T3 construct: purchased DiscoveRx (KinomeScan)
T3 sequence (P07949 29-1114): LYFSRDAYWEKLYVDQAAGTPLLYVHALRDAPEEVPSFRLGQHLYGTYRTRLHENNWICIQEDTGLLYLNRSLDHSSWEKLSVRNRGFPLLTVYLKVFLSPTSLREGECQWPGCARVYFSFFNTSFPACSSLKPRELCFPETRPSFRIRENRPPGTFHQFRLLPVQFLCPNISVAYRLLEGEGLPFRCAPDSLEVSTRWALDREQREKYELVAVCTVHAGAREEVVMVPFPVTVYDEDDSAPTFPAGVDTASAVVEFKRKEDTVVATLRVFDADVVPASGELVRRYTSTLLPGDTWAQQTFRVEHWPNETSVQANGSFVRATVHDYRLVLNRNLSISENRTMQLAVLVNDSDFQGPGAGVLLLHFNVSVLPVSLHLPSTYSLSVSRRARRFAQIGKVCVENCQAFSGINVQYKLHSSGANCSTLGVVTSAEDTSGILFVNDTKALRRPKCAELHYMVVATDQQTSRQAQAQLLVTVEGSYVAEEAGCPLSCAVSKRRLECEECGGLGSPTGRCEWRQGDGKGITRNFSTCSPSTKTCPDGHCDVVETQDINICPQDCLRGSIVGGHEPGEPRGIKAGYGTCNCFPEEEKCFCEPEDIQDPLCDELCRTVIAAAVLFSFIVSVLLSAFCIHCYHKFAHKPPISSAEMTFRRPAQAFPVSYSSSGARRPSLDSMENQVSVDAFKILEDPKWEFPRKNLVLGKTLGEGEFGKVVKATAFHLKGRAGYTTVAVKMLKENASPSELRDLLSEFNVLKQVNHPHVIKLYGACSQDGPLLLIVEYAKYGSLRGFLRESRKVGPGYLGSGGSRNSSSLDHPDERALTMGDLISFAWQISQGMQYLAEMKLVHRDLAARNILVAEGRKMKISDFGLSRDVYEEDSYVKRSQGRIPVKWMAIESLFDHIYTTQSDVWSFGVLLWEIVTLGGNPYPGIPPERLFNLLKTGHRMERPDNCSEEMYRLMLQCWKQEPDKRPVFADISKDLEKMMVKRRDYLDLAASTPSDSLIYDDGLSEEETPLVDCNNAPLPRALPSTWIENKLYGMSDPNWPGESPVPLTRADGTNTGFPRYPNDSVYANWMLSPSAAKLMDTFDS
The note with it: 10 µM, read-out: score (%).

Assay [4] deals with T4, KinomeScan kinase panel (Homo sapiens, UniProt P29597).
T4 construct: purchased DiscoveRx (KinomeScan)

The target in assay [5] is T5, KinomeScan kinase panel (Homo sapiens, UniProt P06213).
T5 construct: purchased DiscoveRx (KinomeScan)
The following applies: INSR, 10 µM; read-out: score (%).

Assay [6] concerns the target T6, KinomeScan kinase panel (Homo sapiens, UniProt P27448).
T6 construct: purchased DiscoveRx (KinomeScan)
The following applies: MARK3, 10 µM; read-out: score (%).

Assay [7] has as its target T7, KinomeScan kinase panel (Homo sapiens, UniProt P49841).
T7 construct: purchased DiscoveRx (KinomeScan)
The following applies: GSK3B, 10 µM; read-out: score (%).

The target in assay [8] is T8, KinomeScan kinase panel (Homo sapiens, UniProt P00519).
T8 construct: purchased DiscoveRx (KinomeScan)
T8 sequence (P00519 whole entry): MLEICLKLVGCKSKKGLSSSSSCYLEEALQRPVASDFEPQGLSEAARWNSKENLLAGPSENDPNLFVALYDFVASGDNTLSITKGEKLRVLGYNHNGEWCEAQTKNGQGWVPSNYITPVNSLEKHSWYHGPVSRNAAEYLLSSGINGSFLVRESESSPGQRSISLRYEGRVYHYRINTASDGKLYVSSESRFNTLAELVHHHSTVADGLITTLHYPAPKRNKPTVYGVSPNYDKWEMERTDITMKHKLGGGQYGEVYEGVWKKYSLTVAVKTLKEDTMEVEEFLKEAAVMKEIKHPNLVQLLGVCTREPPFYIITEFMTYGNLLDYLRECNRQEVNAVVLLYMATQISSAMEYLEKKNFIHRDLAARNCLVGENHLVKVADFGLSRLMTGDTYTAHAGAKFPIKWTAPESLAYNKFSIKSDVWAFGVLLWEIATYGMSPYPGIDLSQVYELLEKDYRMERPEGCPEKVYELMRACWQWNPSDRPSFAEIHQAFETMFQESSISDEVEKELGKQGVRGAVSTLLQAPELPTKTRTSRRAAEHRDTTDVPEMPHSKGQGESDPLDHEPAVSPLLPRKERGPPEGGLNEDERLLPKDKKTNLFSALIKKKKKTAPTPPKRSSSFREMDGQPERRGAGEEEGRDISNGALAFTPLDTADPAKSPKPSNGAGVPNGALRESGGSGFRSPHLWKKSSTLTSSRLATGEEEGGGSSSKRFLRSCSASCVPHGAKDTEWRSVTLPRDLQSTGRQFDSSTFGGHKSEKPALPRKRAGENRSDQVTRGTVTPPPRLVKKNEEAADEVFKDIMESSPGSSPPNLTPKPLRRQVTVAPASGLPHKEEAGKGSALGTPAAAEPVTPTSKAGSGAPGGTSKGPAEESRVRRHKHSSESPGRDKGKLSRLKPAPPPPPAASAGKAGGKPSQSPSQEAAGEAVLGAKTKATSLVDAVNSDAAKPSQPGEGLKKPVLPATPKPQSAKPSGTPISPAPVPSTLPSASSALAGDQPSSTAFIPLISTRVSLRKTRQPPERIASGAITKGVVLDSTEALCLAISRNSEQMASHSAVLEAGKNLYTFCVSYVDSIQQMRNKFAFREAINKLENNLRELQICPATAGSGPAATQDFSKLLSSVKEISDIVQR
The following applies: read-out: score (%).

In assay [9] the target is T9, KinomeScan kinase panel (Homo sapiens, UniProt P15056).
T9 construct: purchased DiscoveRx (KinomeScan)
T9 sequence (P15056 whole entry): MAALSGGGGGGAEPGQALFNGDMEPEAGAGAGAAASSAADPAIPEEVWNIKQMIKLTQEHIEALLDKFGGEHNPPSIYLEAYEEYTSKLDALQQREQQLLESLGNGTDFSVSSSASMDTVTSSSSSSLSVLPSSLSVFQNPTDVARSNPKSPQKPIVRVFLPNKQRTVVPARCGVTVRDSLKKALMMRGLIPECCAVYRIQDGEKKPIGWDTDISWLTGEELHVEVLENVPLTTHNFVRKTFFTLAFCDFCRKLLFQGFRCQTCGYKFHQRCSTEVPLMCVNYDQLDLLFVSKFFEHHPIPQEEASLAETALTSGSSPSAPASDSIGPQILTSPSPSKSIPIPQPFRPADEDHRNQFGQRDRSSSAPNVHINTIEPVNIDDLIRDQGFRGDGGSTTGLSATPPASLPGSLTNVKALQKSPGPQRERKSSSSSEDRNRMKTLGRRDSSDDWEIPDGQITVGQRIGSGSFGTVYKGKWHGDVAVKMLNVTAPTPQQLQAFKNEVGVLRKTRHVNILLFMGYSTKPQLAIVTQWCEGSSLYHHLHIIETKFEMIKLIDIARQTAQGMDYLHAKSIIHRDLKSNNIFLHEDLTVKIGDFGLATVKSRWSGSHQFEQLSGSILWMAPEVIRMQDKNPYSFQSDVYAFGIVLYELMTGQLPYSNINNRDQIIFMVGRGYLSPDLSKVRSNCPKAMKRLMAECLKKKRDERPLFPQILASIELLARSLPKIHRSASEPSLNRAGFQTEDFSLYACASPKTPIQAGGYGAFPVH
The following applies: BRAF, 10 µM; read-out: score (%).

The target of assay [10] is T10, KinomeScan kinase panel (Homo sapiens, UniProt O14920).
T10 construct: purchased DiscoveRx (KinomeScan)
T10 sequence (O14920 1-756): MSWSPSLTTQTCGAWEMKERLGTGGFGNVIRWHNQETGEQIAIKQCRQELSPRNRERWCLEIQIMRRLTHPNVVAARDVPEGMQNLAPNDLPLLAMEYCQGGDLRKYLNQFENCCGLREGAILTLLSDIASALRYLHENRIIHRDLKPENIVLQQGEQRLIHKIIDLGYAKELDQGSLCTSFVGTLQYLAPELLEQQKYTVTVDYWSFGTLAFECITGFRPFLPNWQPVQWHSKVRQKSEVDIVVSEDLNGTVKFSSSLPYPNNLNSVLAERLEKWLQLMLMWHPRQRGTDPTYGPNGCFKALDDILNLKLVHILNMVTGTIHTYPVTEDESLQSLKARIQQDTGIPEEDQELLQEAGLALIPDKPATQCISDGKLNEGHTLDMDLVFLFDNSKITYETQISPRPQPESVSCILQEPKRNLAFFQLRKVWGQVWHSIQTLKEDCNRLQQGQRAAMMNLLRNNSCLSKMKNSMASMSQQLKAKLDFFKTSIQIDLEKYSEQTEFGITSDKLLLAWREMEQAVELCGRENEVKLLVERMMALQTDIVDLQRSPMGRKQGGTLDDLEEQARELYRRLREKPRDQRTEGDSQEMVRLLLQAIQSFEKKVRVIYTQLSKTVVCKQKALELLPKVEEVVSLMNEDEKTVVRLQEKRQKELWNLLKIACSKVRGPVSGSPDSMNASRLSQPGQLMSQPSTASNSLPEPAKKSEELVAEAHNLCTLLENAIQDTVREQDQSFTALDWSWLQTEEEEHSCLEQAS
The following applies: IKK-beta, 10 µM; read-out: score (%).

The target of assay [11] is T11, KinomeScan kinase panel (Homo sapiens, UniProt Q9H0K1).
T11 construct: purchased DiscoveRx (KinomeScan)
The note with it: read-out: score (%).

For assay [12], the target named is T12, KinomeScan kinase panel (Homo sapiens, UniProt Q9UPE1).
T12 construct: purchased DiscoveRx (KinomeScan)
T12 sequence (Q9UPE1 whole entry): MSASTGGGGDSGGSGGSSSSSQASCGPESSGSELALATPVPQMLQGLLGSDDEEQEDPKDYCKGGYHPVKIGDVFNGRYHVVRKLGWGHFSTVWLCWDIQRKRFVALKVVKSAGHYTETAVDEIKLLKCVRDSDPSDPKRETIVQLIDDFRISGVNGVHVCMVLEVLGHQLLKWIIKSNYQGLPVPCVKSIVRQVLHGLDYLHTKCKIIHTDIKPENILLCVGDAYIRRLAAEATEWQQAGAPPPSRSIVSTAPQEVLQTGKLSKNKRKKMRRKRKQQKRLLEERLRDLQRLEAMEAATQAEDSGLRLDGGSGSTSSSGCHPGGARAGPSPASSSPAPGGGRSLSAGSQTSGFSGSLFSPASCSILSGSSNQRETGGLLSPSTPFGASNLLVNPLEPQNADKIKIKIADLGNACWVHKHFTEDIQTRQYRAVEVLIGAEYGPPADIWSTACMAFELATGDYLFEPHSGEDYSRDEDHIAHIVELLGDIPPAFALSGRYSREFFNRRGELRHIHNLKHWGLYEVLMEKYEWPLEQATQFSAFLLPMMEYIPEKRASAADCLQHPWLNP
The note with it: read-out: score (%).

In assay [13] the target is T13, KinomeScan kinase panel (Homo sapiens, UniProt Q00536).
T13 construct: purchased DiscoveRx (KinomeScan)
The following applies: PCTK1, 10 µM; read-out: score (%).

Assay [14] has as its target T14, KinomeScan kinase panel (Homo sapiens, UniProt P00519, F317L).
T14 construct: purchased DiscoveRx (KinomeScan)
The following applies: 10 µM, read-out: score (%).

Where [15] appears, read: kinase TYK2(JH1domain-catalytic), 10 µM.

T14 sequence (P00519 whole entry F317L): as the sequence (P00519 whole entry) above, with F317L counted along it
T6 sequence (P27448 whole entry): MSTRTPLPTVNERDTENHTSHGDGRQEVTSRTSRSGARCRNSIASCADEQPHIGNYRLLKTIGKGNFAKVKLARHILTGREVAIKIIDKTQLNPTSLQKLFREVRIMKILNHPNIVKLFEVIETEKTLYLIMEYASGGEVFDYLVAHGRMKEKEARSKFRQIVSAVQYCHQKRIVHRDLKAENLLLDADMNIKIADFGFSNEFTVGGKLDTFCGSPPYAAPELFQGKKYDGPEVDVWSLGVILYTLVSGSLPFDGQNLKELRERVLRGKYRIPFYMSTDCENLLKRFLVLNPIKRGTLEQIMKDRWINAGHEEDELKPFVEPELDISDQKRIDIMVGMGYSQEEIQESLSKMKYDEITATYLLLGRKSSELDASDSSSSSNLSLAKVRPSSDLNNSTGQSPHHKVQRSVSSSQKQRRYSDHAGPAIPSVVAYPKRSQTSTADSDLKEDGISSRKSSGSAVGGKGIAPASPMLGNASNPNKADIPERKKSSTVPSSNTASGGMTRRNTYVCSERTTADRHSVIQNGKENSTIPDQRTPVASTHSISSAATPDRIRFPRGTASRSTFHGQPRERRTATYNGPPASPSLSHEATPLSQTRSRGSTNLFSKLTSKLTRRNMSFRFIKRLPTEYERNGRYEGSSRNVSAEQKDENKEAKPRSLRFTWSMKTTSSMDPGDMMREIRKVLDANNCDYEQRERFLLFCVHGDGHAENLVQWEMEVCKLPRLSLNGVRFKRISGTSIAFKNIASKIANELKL
T7 sequence (P49841 whole entry): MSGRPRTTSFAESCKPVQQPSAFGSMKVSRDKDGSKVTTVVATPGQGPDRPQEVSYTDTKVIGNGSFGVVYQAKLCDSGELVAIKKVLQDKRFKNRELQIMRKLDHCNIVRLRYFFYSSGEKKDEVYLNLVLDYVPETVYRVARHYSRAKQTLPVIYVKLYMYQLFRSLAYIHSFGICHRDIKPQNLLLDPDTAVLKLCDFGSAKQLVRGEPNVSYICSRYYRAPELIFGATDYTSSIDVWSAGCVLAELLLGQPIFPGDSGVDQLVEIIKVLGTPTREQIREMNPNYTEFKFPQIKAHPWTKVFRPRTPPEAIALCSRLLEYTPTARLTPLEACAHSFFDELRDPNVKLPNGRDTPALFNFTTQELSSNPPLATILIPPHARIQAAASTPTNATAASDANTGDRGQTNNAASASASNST

On to `CCN1CCN(Cc2ccc(NC(=O)c3ccc(C)c(NC(=O)c4cncc(-c5cccs5)c4)c3)cc2C(F)(F)F)CC1` [ALW-II-41-27], for which the remaining binding at 10 µM on KinomeScan kinase panel [1] is 5.6%; on KinomeScan kinase panel [2] (kinase SgK085, 10 µM), more than 30%; at KinomeScan kinase panel [3] (RET), 0.05%; on KinomeScan kinase panel [5] it was 12%; on KinomeScan kinase panel [6], more than 30%; at KinomeScan kinase panel [7], more than 30%. Further, the remaining binding at 10 µM on KinomeScan kinase panel [8] (ABL1, 10 µM) is 0.05%; at KinomeScan kinase panel [9], 1.8%; on KinomeScan kinase panel [10] it was 1.2%; on KinomeScan kinase panel [11] (kinase SIK2, 10 µM), 13%; at KinomeScan kinase panel [12] (kinase SRPK3, 10 µM), more than 30%; on KinomeScan kinase panel [13], more than 30%. Also, at KinomeScan kinase panel [14] (ABL1(F317L)), the remaining binding at 10 µM amounted to 0.2%. Besides, the “score (%)” value is listed as “nb (Hits values higher than 30% were considered negative (no binding: nb))” at KinomeScan kinase panel [4] and 9.8% at KinomeScan kinase panel [4] (setting [15]).
Regarding `CCN1CCN(Cc2ccc(NC(=O)c3ccc(C)c(/C=C/c4cnc5[nH]ccc5c4Cl)c3)cc2C(F)(F)F)CC1` [HG-6-63-01, (E)-3-(2-(4-chloro-1H-pyrrolo[2,3-b]pyridin-5-yl)vinyl)-N-(4-((4-ethylpiperazin-1-yl)methyl)-3-(trifluoromethyl)phenyl)-4-methylbenzamide], the remaining binding at 10 µM was 14% on KinomeScan kinase panel [1]; 8.5% on KinomeScan kinase panel [2] (SgK085, 10 µM); 0% at KinomeScan kinase panel [3] (RET); more than 30% on KinomeScan kinase panel [5]; 29% at KinomeScan kinase panel [6]; more than 30% on KinomeScan kinase panel [7]. The remaining binding at 10 µM at KinomeScan kinase panel [8] (ABL1, 10 µM) was 0.3%; at KinomeScan kinase panel [9], 1.2%; at KinomeScan kinase panel [10], 5.9%; on KinomeScan kinase panel [11] (SNF1LK2, 10 µM), 6.4%; at KinomeScan kinase panel [12] (SRPK3, 10 µM), 22%; on KinomeScan kinase panel [13] it was more than 30%. Moreover, at KinomeScan kinase panel [14] (ABL1(F317L)), the remaining binding at 10 µM turned out to be 0.1%. The “score (%)” value is reported as “nb (Hits values higher than 30% were considered negative (no binding: nb))” on KinomeScan kinase panel [4] (kinase TYK2(Kin.Dom.1), 10 µM) and 7% on KinomeScan kinase panel [4] (kinase TYK2(Kin.Dom.2), 10 µM).
`CCN1CCN(Cc2ccc(NC(=O)c3ccc(C)c(C#Cc4cccnc4)c3)cc2C(F)(F)F)CC1` [XMD15-44]: the remaining binding at 10 µM on KinomeScan kinase panel [1] was 11%; on KinomeScan kinase panel [2] (MYLK4, 10 µM), more than 30%; at KinomeScan kinase panel [3] (kinase RET), 0%; on KinomeScan kinase panel [5], more than 30%; at KinomeScan kinase panel [6] it was more than 30%; at KinomeScan kinase panel [7], more than 30%. Besides, the remaining binding at 10 µM on KinomeScan kinase panel [8] (ABL1-nonphosphorylated, 10 µM) was 0%; on KinomeScan kinase panel [8] (ABL1-phosphorylated, 10 µM), 0%; at KinomeScan kinase panel [9], 0.05%; on KinomeScan kinase panel [10], 0%; at KinomeScan kinase panel [11] (kinase SIK2, 10 µM) it was 21%; on KinomeScan kinase panel [12] (kinase SRPK3, 10 µM) it was 45%. The remaining binding at 10 µM on KinomeScan kinase panel [13] amounted to 8.4%; on KinomeScan kinase panel [14] (ABL1(F317L)-nonphosphorylated) it was 0%; at KinomeScan kinase panel [14] (ABL1(F317L)-phosphorylated), 0.85%. Further, the “score (%)” value on KinomeScan kinase panel [4] (setting [15]) turned out to be 4.2%; at KinomeScan kinase panel [4] (kinase TYK2(JH2domain-pseudokinase), 10 µM) it was 99%.
